Results published in patent publication US6681132B1, “Sodium magnetic reasonance imaging used in diagnosing tumors and assessing response to treatment” (The Trustees of Columbia University in the City of New York, priority 1999, dated 2004).
“Also recorded” adds a separate entry of the source.

Assays:
[1] = system: carcinogen (MNU) induced breast tumor; assay: Weighted and non-weighted sodium MRI of carcinogen (MNU) induced breast tumor; type: in vivo, Sprague Dawley rat; settings: rat
Procedure: In another example, a breast cancer tumor is imaged in an animal model. This image verifies that the imaging diagnostic described herein responds to the treatment of a different animal model when using a different tissue type as the neoplastic target. The tumor was induced by injecting a Sprague Dawley rat with carcinogen MNU. When the tumor was palpable and measured in excess of 5 mm in diameter, the rat was imaged using weighting and non-weighting pulse sequences. One rat was given a 3 mg intra venous injection of taxotere and a second was given a 6 mg injection of taxotere. […] Both the images became brighter, with the most dramatic proportional change occurring in the weighted image.

[2] = system: LNCaP tumor; assay: Na SQ and TQ line profiles of LNCaP tumor in vivo; settings: 18 hours after i.v. injection of 1 mg in the femoral vein
Procedure: After preliminary studies, experiments were performed where proton, Na SQ and Na TQ images and line profiles were acquired at baseline and following bolus i.v. injection of chemotherapy. Imaging results for a LNCaP tumor in vivo, both at baseline and 18 hours after i.v. injection of 1 mg of taxotere in the femoral vein were examined.

[3] = human single loading doses; cited from earlier work
[4] = system: mouse; settings: in vivo; cited from earlier work

## CC(=O)O[C@@]12CO[C@@H]1C[C@H](O)[C@@]1(C)C(=O)[C@H](O)C3=C(C)[C@@H](OC(=O)[C@H](O)[C@@H](NC(=O)OC(C)(C)C)c4ccccc4)C[C@@](O)([C@@H](OC(=O)c4ccccc4)[C@H]21)C3(C)C [taxotere]
[1]; 3 mg intra venous injection
  response of sodium MR images to treatment: Only the latter showed a response
[1]; 6 mg intravenous injection
  response of sodium MR images to treatment: showed a response; also recorded: become brighter after the treatment
[2]
  change of SQ line profile: did not significantly vary
  change of TQ line profiles: substantial increase
[3]
  peak plasma level: about 5 μMol/L
  plasma level for the first 9.6 hrs: > 50 nM
  plasma level for the first 25 hrs: > 10 nM
[4]
  reported toxic mouse dose: 4.5 mg
